From ChEMBL document CHEMBL1138312, “Design and synthesis of indole-based peptoids as potent noncompetitive antagonists of transient receptor potential vanilloid 1” (J Med Chem, 2007)
Each block holds one compound with its values, some of them ahead of it.

Experiments:
[1] = target: Transient receptor potential cation channel subfamily V member 1 (Rattus norvegicus, UniProt O35433); experiment: Blockade of capsaicin-activated rat TRPV1 channel expressed in Xenopus oocytes; assay type: cell-based, Oocyte
Chain of Transient receptor potential cation channel subfamily V member 1 (O35433 whole entry): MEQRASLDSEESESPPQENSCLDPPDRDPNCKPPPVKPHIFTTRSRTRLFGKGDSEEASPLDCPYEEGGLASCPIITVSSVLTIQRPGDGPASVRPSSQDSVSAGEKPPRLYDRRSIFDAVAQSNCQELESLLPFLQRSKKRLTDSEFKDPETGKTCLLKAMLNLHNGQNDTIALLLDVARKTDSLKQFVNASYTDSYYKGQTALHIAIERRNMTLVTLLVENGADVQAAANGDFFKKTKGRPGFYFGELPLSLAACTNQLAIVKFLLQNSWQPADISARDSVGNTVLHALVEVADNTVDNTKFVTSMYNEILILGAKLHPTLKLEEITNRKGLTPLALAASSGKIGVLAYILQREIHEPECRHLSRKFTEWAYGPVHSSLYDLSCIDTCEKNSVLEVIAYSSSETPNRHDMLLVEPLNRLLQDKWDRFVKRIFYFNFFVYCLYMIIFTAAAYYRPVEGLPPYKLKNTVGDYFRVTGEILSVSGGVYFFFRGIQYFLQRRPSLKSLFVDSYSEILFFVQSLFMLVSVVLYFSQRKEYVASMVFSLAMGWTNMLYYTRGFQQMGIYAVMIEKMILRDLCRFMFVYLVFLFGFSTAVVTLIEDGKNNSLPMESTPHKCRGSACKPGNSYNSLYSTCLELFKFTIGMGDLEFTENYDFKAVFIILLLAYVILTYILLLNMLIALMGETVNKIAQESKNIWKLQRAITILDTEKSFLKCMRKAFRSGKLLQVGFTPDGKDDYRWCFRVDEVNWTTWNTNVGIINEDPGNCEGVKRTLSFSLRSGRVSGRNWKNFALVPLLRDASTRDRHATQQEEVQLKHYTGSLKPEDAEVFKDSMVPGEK

[2] = target: Glutamate NMDA receptor; Grin1/Grin2a (Rattus norvegicus, UniProt P35439+Q00959); experiment: Blockade of L-glutamate/glycine-activated rat NR1/NR2A NMDA receptor expressed in Xenopus oocytes; assay type: cell-based, Oocyte
Chain of Glutamate NMDA receptor; Grin1/Grin2a (Q00959 whole entry, other chains not shown): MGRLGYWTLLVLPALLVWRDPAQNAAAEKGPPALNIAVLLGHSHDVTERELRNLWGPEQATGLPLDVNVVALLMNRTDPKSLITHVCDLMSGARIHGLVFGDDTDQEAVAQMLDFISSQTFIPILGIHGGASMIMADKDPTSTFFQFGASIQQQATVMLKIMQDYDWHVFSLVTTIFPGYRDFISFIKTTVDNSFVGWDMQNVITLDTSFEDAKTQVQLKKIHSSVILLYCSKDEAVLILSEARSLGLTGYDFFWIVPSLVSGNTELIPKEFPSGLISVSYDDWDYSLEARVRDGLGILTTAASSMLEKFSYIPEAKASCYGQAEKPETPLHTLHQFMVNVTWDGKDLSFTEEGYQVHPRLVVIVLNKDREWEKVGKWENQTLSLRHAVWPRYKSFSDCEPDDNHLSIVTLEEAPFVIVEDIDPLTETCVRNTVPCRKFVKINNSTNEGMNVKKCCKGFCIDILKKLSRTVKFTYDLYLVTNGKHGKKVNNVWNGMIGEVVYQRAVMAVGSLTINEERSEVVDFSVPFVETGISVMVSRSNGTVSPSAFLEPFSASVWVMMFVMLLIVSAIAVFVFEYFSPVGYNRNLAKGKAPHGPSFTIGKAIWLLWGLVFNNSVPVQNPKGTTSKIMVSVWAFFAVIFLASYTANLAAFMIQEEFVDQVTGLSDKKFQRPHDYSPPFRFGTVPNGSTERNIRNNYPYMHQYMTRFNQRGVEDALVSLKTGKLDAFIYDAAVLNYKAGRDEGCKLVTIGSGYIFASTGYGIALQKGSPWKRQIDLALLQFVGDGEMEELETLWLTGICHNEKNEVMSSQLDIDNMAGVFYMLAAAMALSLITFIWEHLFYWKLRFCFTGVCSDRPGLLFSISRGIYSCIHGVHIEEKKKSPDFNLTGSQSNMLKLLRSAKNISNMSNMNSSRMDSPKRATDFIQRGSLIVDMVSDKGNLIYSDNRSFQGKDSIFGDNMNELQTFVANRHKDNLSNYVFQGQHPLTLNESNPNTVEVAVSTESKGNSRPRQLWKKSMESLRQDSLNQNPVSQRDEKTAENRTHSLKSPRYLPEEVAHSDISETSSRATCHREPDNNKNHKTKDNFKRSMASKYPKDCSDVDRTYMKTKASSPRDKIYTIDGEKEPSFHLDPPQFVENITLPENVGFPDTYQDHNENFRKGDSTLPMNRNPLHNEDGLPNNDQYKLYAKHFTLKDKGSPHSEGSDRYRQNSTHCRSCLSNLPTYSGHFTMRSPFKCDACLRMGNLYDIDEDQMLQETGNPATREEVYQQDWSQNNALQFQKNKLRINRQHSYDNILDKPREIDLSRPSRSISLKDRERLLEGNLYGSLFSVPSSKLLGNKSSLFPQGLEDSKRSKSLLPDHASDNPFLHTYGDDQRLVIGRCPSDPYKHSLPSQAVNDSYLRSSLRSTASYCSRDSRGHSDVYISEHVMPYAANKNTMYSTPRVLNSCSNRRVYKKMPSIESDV

IC50 [1]: 0.7 µM
IC50 [2]: 15 µM
Compound: N=C(N)NCCC[C@H](N)C(=O)N(CCc1ccc(Cl)cc1Cl)CC(=O)N(CCc1ccc(Cl)cc1Cl)CC(N)=O

Compound: NCCCCCCN(CCc1ccc(Cl)cc1Cl)CC(=O)N(CCc1ccc(Cl)cc1Cl)CC(N)=O
IC50 [1]: 0.4 µM
IC50 [2]: 3 µM

Compound: N=C(N)NCCC[C@H](N)C(=O)N(CCc1ccc(Cl)cc1Cl)CC(=O)NCCc1ccc(Cl)cc1Cl
IC50 [1]: 0.17 µM
IC50 [2]: 0.8 µM

Compound: NC(N)=NCCC[C@H](N)C(=O)N(CCc1c[nH]c2ccccc12)CC(=O)NCCc1c[nH]c2ccccc12
IC50 [2]: 18 µM

Compound: N=C(N)NCCC[C@H](N)C(=O)N(CCc1c[nH]c2ccccc12)CC(=O)N(CCc1c[nH]c2ccccc12)CC(N)=O
IC50 [1]: 1.33 µM
IC50 [2]: 207 µM

Compound: NC(=O)CN(CCc1ccc(Cl)cc1Cl)C(=O)CN(CCc1c[nH]c2ccccc12)C(=O)[C@@H](N)CCCN=C(N)N
IC50 [1]: 0.52 µM
IC50 [2]: 17 µM

Compound: N=C(N)NCCC[C@H](N)C(=O)N(CCc1ccc(Cl)cc1Cl)CC(=O)N(CCc1c[nH]c2ccccc12)CC(N)=O
IC50 [1]: 0.18 µM
IC50 [2]: 166 µM

Compound: NC(N)=NCCC[C@H](N)C(=O)N[C@H]1C[C@@H](C(=O)NCCc2ccc(Cl)cc2Cl)N(Cc2ccc(Cl)cc2Cl)C1
IC50 [1]: 0.7 µM
IC50 [2]: 8 µM
